Experimental data: the NIST ThermoML archive (doi:10.1007/s10765-006-0080-z)

Key:
[1] = for thermal diffusivity: 101.33 kPa, Laser flash
[2] = molar heat capacity at constant pressure; settings: 101.33 kPa, Laser pulse heating

[Zr] [zirconium]
Settings	molar heat capacity at constant pressure, [2] [J/K/mol]	thermal diffusivity, [1] [m2/s]
289 K, Crystal 2	–	1.25e-05
293 K, Crystal 2	26.31	–
323 K, Crystal 2	26.57	–
327 K, Crystal 2	–	1.17e-05
373 K, Crystal 2	26.89	–
379 K, Crystal 2	–	1.11e-05
423 K, Crystal 2	27.31	1.07e-05
473 K, Crystal 2	27.78	1.03e-05
523 K, Crystal 2	28.27	–
524 K, Crystal 2	–	1.01e-05
569 K, Crystal 2	–	9.95e-06
573 K, Crystal 2	28.82	–
621 K, Crystal 2	–	9.84e-06
623 K, Crystal 2	29.33	–
670 K, Crystal 2	–	9.74e-06
673 K, Crystal 2	29.88	–
715 K, Crystal 2	–	9.76e-06
723 K, Crystal 2	30.6	–
772 K, Crystal 2	–	9.89e-06
773 K, Crystal 2	31.24	–
823 K, Crystal 2	31.87	–
827 K, Crystal 2	–	9.97e-06
872 K, Crystal 2	–	1.01e-05
873 K, Crystal 2	32.53	–
923 K, Crystal 2	33.26	1.02e-05
970 K, Crystal 2	–	1.03e-05
973 K, Crystal 2	33.94	–
1023 K, Crystal 2	34.6	1.05e-05
1068 K, Crystal 2	–	1.06e-05
1073 K, Crystal 2	35.23	–
1083 K, Crystal 2	35.42	–
1093 K, Crystal 2	35.84	–
1103 K, Crystal 2	36.88	–
1113 K, Crystal 2	39.48	–
1121 K, Crystal 2	–	9.27e-06
1123 K, Crystal 2	43.12	–
1128 K, Crystal 2	45.62	–
1132 K, Crystal 2	–	8.29e-06
1133 K, Crystal 2	49.09	–
1138 K, Crystal 2	61.42	–
1143 K, Crystal 1	52.29	7.99e-06
1148 K, Crystal 1	42.04	–
1150 K, Crystal 1	–	1.09e-05
1153 K, Crystal 1	33.83	–
1163 K, Crystal 1	31	–
1173 K, Crystal 1	29.58	–
1177 K, Crystal 1	–	1.41e-05
1218 K, Crystal 1	–	1.43e-05
1223 K, Crystal 1	29.71	–
1272 K, Crystal 1	–	1.48e-05
1273 K, Crystal 1	30.06	–
1317 K, Crystal 1	–	1.5e-05
1323 K, Crystal 1	30.23	–
1370 K, Crystal 1	–	1.51e-05
1373 K, Crystal 1	30.3	–
1423 K, Crystal 1	30.53	–
1431 K, Crystal 1	–	1.57e-05
1468 K, Crystal 1	–	1.57e-05
1473 K, Crystal 1	30.72	–
1523 K, Crystal 1	30.91	–
1573 K, Crystal 1	31.36	–
1623 K, Crystal 1	31.34	–
1673 K, Crystal 1	31.59	–
1723 K, Crystal 1	32.07	–
1773 K, Crystal 1	32.8	–
1823 K, Crystal 1	33.31	–
1873 K, Crystal 1	33.5	–
1923 K, Crystal 1	33.68	–
1973 K, Crystal 1	34.23	–

Settings	Triple point temperature [K]
[1], Crystal 2, Laser pulse heating	1141.4
